Assay results published in US10729130B2, “Nematicidal compositions and methods of using them” (Eden Research plc, priority 2004, dated 2020).
Values belong to the molecule of their own block, whether it stands above or below them.

Assays:
Assay type in all cases: physicochemical
[1] = Maximal terpene loading at high Baker's yeast particle levels (free terpene score); set-up: key to Free Terpene: +: “free terpene” refers to the visible presence of terpene in the centrifuged reaction mixture; −: The absence of free terpene indicates complete absorption of the terpene by the particles; details: for terpene emulsion absorbed and encapsulated per 125 mg of YP: Baker's YP 250 mg/ml; for Free Terpene: 500 μl 250 mg/ml YP
Protocol: Samples were centrifuged at 14,000×g for 10 minutes and the appearance of free terpene floating on the aqueous layer was scored. The expression “free terpene” refers to the visible presence of terpene in the centrifuged reaction mixture. The absence of free terpene indicates complete absorption of the terpene by the YP. The highest volume of terpene absorbed by the YP, as evidenced by the absence of free terpene, was recorded as the maximal volume of absorbed terpene emulsion.

[2] = Terpene stability: yellow colored oxidation product (colour of encapsulated terpene pellet); set-up: key to Colour: W = white; Y = yellow; sl = slight; int = intermediate; key to Color: White, W; Yellow, Y; Very Yellow, VY; details: for Color: Table 26, scored at 24 hours
Protocol: Loading reactions were set up as shown in Table 25 and left to incubate overnight. Samples were centrifuged at 14,000×g for 10 minutes and the appearance of free terpene floating on the aqueous layer and the color of the encapsulated terpenes in the pellet was scored. The highest volume of terpene absorbed by particles as evidenced by the absence of free terpene was recorded as the volume of absorbed terpene emulsion. The reactions were incubated for 1, 3, 6, 9 and 24 hours at room temperature or 37° C. After incubation samples were centrifuged at 14,000×g for 10 minutes and the appearance of free terpene floating on the aqueous layer was scored. The highest volume of terpene absorbed by the particles as evidenced by the absence of free terpene was recorded as the volume of absorbed terpene emulsion. Colour of the encapsulated pellet was scored at 24 hours. Increasing volumes of terpene emulsion were mixed with 250 mg/ml Baker's YP or 250 mg/ml SAF Mannan™ overnight at room temperature as shown in Tables 27 and 28. Samples were centrifuged at 14,000×g for 10 minutes and the appearance of free terpene floating on the aqueous layer was scored. The highest volume of terpene emulsion absorbed by Baker's YP or SAF Mannan™ as evidenced by the absence of free terpene was recorded as the volume of absorbed terpene emulsion. Colour of encapsulated terpenes in the pellet was recorded.

[3] = Baker's YP loading of different terpenes and terpene mixtures; set-up: key to Free Terpene: +: “free terpene” refers to the visible presence of terpene in the centrifuged reaction mixture; −: The absence of free terpene indicates complete absorption of the terpene by the particles; details: for Free Terpene: Baker's YP 250 mg/ml 500 μl; for Vol. Loaded μl: approximate maximal terpene loading in Baker's YP
Protocol: (§1) Increasing volumes of terpene emulsion were mixed with 250 mg/ml Baker's YP or 250 mg/ml SAF Mannan™ overnight at room temperature as shown in Tables 27 and 28. Samples were centrifuged at 14,000×g for 10 minutes and the appearance of free terpene floating on the aqueous layer was scored. The highest volume of terpene emulsion absorbed by Baker's YP or SAF Mannan™ as evidenced by the absence of free terpene was recorded as the volume of absorbed terpene emulsion. Colour of encapsulated terpenes in the pellet was recorded.
(§2) Percentage loaded represents a ratio of the amount of terpene loaded to the amount of particle present (weight for weight).

[4] = SAF Mannan loading of different terpenes and terpene mixtures; set-up: key to Free Terpene: +: “free terpene” refers to the visible presence of terpene in the centrifuged reaction mixture; −: The absence of free terpene indicates complete absorption of the terpene by the particles; key to Free Terpene: phase inversion remark: Inverted = Phase Inverted - solids floating on top - no free oil; W = white; Y = yellow; details: for Free Terpene: SAF Mannan 500 μl (250 mg/ml), overnight, room temperature; for Free Terpene: phase inversion remark: SAF Mannan 500 μl, second line of the Free Terpene cell; for Vol. loaded (maximal terpene loading in SAF Mannan): approximate maximal loading, volume of terpene emulsion absorbed by SAF Mannan; for % Loaded w/w (maximal terpene loading in SAF Mannan): ratio of amount of terpene loaded to amount of particle present (weight for weight)
Protocol: as §1, §2

[5] = emulsion 15 μl, 1% Tween-80 485 μl
[6] = emulsion 37.5 μl, 1% Tween-80 462.5 μl
[7] = emulsion 75 μl, 1% Tween-80 425 μl
[8] = emulsion 112.5 μl, 1% Tween-80 387.5 μl
[9] = emulsion 150 μl, 1% Tween-80 350 μl
[10] = emulsion 225 μl, 1% Tween-80 275 μl
[11] = emulsion 450 μl, 1% Tween-80 50 μl
[12] = Table 25, Baker's 250 mg/ml, overnight
[13] = Table 25, Levacan 217 mg/ml, overnight
[14] = Table 25, Nutrex 163 mg/ml, overnight
[15] = Table 25, Nutricepts 99 mg/ml, overnight
[16] = Table 25, SAF Mannan 234 mg/ml, overnight
[17] = Table 25, WGP 121 mg/ml, overnight
[18] = Table 27, Baker's YP, emulsion 15 μl
[19] = Table 27, Baker's YP, emulsion 37.5 μl
[20] = Table 27, Baker's YP, emulsion 112.5 μl
[21] = Table 27, Baker's YP, emulsion 150 μl
[22] = Table 27, Baker's YP, emulsion 225 μl
[23] = Table 27, Baker's YP, emulsion 450 μl
[24] = colour of encapsulated terpene in pellet, SAF Mannan 500 μl, terpene emulsion vol 15
[25] = colour of encapsulated terpene in pellet, SAF Mannan 500 μl, terpene emulsion vol 37.5
[26] = colour of encapsulated terpene in pellet, SAF Mannan 500 μl, terpene emulsion vol 75
[27] = colour of encapsulated terpene in pellet, SAF Mannan 500 μl, terpene emulsion vol 112.5
[28] = colour of encapsulated terpene in pellet, SAF Mannan 500 μl, terpene emulsion vol 150
[29] = colour of encapsulated terpene in pellet, SAF Mannan 500 μl, terpene emulsion vol 225
[30] = colour of encapsulated terpene in pellet, SAF Mannan 500 μl, terpene emulsion vol 450
[31] = terpene emulsion vol 15, 1% Tween-80 485 μl
[32] = terpene emulsion vol 37.5, 1% Tween-80 462.5 μl
[33] = terpene emulsion vol 75, 1% Tween-80 425 μl
[34] = terpene emulsion vol 112.5, 1% Tween-80 387.5 μl
[35] = terpene emulsion vol 450, 1% Tween-80 50 μl

Molecule: CC(C)=CCCC(C)=CC=O [Citral, citral]
terpene emulsion absorbed and encapsulated per 125 mg of YP [1]: at least 75 μl | Free Terpene [1, 5]: − | Free Terpene [1, 6]: − | Free Terpene [1, 7]: − | Free Terpene [1, 8]: Sl+ | Free Terpene [1, 9]: + | Free Terpene [1, 10]: + | Free Terpene [1, 11]: + | Colour [2, 12]: Y | Colour [2, 13]: int | Colour [2, 14]: Y | Colour [2, 15]: Y | Colour [2, 16]: W | Colour [2, 17]: int | Colour ([2]; Table 25, no particle, emulsion in 1% Tween 80, overnight): Y | Color ([2]; 37 ° C., Bakers 250 mg/ml): VY | Color ([2]; 37 ° C., Nutrex 100 mg/ml): VY | Color ([2]; 37 ° C., SAF 100 mg/ml): W | Color ([2]; Rt, Bakers 250 mg/ml): Y | Color ([2]; Rt, Nutrex 100 mg/ml): Y | Color ([2]; Rt, SAF 100 mg/ml): W | Colour [2, 18]: Y | Colour [2, 19]: Y | Colour ([2]; Table 27, Baker's YP, emulsion 75 μl): Y | Colour [2, 20]: Y | Colour [2, 21]: Y | Colour [2, 22]: Y | Colour [2, 23]: Y | Colour [2, 24]: W | Colour [2, 25]: W | Colour [2, 26]: W | Colour [2, 27]: W | Colour [2, 28]: W | Colour [2, 29]: W | Colour [2, 30]: W | Free Terpene [3, 5]: − | Free Terpene [3, 6]: − | Free Terpene [3, 7]: − | Free Terpene [3, 9]: + | Free Terpene [3, 10]: + | Free Terpene [3, 11]: + | Vol. Loaded μl [3]: 75 µL | Free Terpene [4, 31]: − | Free Terpene [4, 32]: − | Free Terpene [4, 33]: − | Free Terpene [4, 34]: − | Free Terpene ([4]; terpene emulsion vol 225, 1% Tween-80 275 μl): + | Free Terpene [4, 35]: + | Free Terpene: phase inversion remark ([4]; terpene emulsion vol 150): Inverted | Free Terpene: phase inversion remark ([4]; terpene emulsion vol 225): Inverted | Free Terpene: phase inversion remark ([4]; terpene emulsion vol 450): Inverted | Vol. loaded (maximal terpene loading in SAF Mannan) [4]: 150 µL | % Loaded w/w (maximal terpene loading in SAF Mannan) [4]: 133% w/w

terpene emulsion absorbed and encapsulated per 125 mg of YP [1]: at least 112.5 μl | Free Terpene [1, 5]: − | Free Terpene [1, 6]: − | Free Terpene [1, 7]: − | Free Terpene [1, 8]: − | Free Terpene [1, 9]: Sl+ | Free Terpene [1, 10]: + | Free Terpene [1, 11]: + | Colour [2, 12]: W | Colour [2, 13]: W | Colour [2, 14]: W | Colour [2, 15]: W | Colour [2, 16]: W | Colour [2, 17]: W | Color ([2]; 37 ° C., Bakers 250 mg/ml): W | Color ([2]; 37 ° C., Nutrex 100 mg/ml): W | Color ([2]; 37 ° C., SAF 100 mg/ml): W | Color ([2]; Rt, Bakers 250 mg/ml): W | Color ([2]; Rt, Nutrex 100 mg/ml): W | Color ([2]; Rt, SAF 100 mg/ml): W | Colour ([2]; Table 27, Baker's YP, emulsion 7 μl as printed): W | Colour [2, 18]: W | Colour [2, 19]: W | Colour [2, 20]: W | Colour [2, 21]: W | Colour [2, 22]: W | Colour [2, 23]: W | Colour [2, 24]: W | Colour [2, 25]: W | Colour [2, 26]: W | Colour [2, 27]: W | Colour [2, 28]: W | Colour [2, 29]: W | Colour [2, 30]: W | Free Terpene [3, 5]: − | Free Terpene [3, 6]: − | Free Terpene [3, 9]: + | Free Terpene [3, 10]: + | Vol. Loaded μl [3]: 37.5 µL | % Loaded w/w ([3]; maximal loading in Baker's YP, ratio of terpene loaded to particle present, weight for weight): 33.3 % w/w | Free Terpene [4, 31]: − | Free Terpene [4, 32]: − | Free Terpene [4, 33]: − | Free Terpene [4, 34]: − | Free Terpene [4, 35]: + | Vol. loaded (maximal terpene loading in SAF Mannan) [4]: 112.5 µL | % Loaded w/w (maximal terpene loading in SAF Mannan) [4]: 100% w/w
Molecule: L-carvone
